Experimental data reported in US9855238B2, “Compositions comprising 15-HEPE and methods of using the same” (Afimmune Limited, priority 2015, dated 2018).
Where “and” joins values, the source holds several entries; their conditions need not be identical. Equal entries are not always repeated.

Tests used:
Format in all cases: in vivo, human
[1] = Phase I Part 1 single ascending dose (SAD) pharmacokinetics of plasma 15(S)-HEPE, fasted; conditions: for AUC0-last / Cmax / Tlast / Tmax: plasma 15(S)-HEPE, Day 1; for AUC0-last / Cmax: geom. mean (geom. CV %); for Tlast / Tmax: median (minimum, maximum)
Protocol: (§1) A Phase I, single-centre, randomised, double-blind, placebo-controlled study in male and female healthy volunteers aged 18 to 45 years, inclusive was performed. Fifty-seven (57) subjects were enrolled with 8 subjects per cohort (ideally 4 males and 4 females, but no less than 3 per gender). Cohort 5 enrolled a total of 9 subjects to account for discontinued subjects. The effective date of study commencement was defined as inclusion of the first subject (inclusion starts with the informed consent signature). Subjects who were enrolled in Part 1 of the study (single dose cohorts) could have been brought back and re-enrolled in Part 2 (multiple dose) provided they had no AEs related to the study drug and that there was at least a 14-day washout period before starting the multiple dose. There were 18 subjects who participated in both study parts. The subjects underwent screening within 21 days prior to study Day 1.
Part 1 comprised 4 dose cohorts (100 mg, 500 mg, 1000 mg, and 2000 mg). Six (6) subjects were randomized to receive DS102 and 2 subjects received matching placebo. A single oral dose of DS102 or matching placebo was administered.
(§2) In Part 1, DS102 capsules (Lot No. 2540M-1504) or matching placebo (Lot No. KM73) were administered in a single oral dose according to Table 1.
(§3) For study Part 1, Cohorts 1, 2, 3, and 4 blood samples were taken predose on Day 1 up to 312 hours postdose. For study Part 2, Cohorts 5, 6, and 7 blood samples were taken on Days 1, 14, and 28 at predose and up to 168 hours postdose. The appropriate PK parameters, e.g., Cmax, Tmax, AUC0-24, AUC0-last, AUC0-inf, AUC % ext, Kel, t½, RCmax, and RAUC were presented, where appropriate. Plasma 15(S)-HEPE data contained many values below the limit of quantitation (BLQ) and only sparse measurable concentrations leading to incomplete PK profiles. Given the nature of the data observed, conventional dose proportionality and steady-state analyses could not be performed. No inferential statistical analyses were performed for PK parameters.
(§4) Summary statistics, including sample size (N), arithmetic mean (mean), standard deviation (SD), coefficient of variation (CV %), median, minimum, and maximum were calculated for all nominal concentration time points. Plasma 15(S)-HEPE PK parameters were tabulated by treatment and listed by subject and parameter. Summary statistics (N, mean, SD, CV %, median, minimum, and maximum) were calculated for plasma 15(S)-HEPE PK parameters. In addition, geometric mean (Geom. Mean) and geometric CV % (Geom. CV %) were presented for AUCs and Cmax. Excluded subjects were included in the PK parameter table listings, but were excluded from the summary statistics and noted as such in the tables. Mean and individual concentration-time profiles were presented on linear and semi-log scales. Linear mean plots were presented with and without SD. Individual plots were presented on linear and semi-log scales.

[2] = Phase I Part 1 food effect pharmacokinetics of plasma 15(S)-HEPE (standard ATPIII/TLC diet, high-fat diet); conditions: for Tlast / Tmax: median
Protocol: as §1
Cohort 2 also received 500 mg of DS102 in 2 fed states. While the first 500 mg dose was given in fasted state, the second and third 500 mg doses were given in fed state (standard ATPIII/TLC diet and high-fat diet, respectively). The second dose was received at least 14 days after their first dose and the third dose was received at least 14 days after their second dose.
as §2, §3, §4

[3] = Phase I Part 2 multiple ascending dose (MAD) pharmacokinetics of plasma 15(S)-HEPE, QD for 28 days, fasted; conditions: for AUC0-last / Cmax: geom. mean; for Tlast / Tmax: median; for RAUC / RCmax: mean ± SD
Protocol: as §1
Part 2 of the study involved a multipledose regimen at 3 dose levels using 3 cohorts consisting of 8 subjects each. Six (6) subjects were randomized to receive DS102 and 2 subjects received matching placebo. Cohorts 5 and 6 (9 and 8 subjects, respectively) received oral DS102 or placebo QD for 28 days.
In Part 2, DS102 capsules (Lot No. 2540M-1504) or matching placebo (Lot No. KM73) were administered QD for 28 days according to Table 2.
as §3, §4

[4] = Phase I safety evaluation (AEs, clinical laboratory tests, vital signs, ECGs); conditions: healthy subjects
Protocol: as §1
All clinical safety data were presented in by-subject data listings. Safety was evaluated by clinical laboratory tests, physical examination, vital signs, electrocardiograms (ECGs), and adverse events (AEs).
Continuous variables were summarized using number of observations (N), mean, SD, median, minimum, and maximum. Frequency counts were reported for categorical data. AEs were classified according to the Medical Dictionary for Regulatory Activities (MedDRA®), Version 18.0. Concomitant medications were classified according to the World Health Organization (WHO) Drug Dictionary 1 Mar. 2015. Vital sign, ECG, and laboratory summary and change from baseline results were presented. Shift tables were also presented for laboratory and ECG parameters.

[5] = single oral 500 mg fasted, N = 2
[6] = single oral 1000 mg fasted, N = 3
[7] = single oral 2000 mg fasted, N = 3
[8] = plasma 15(S)-HEPE, single oral 500 mg fed high fat diet, N = 6, geom. mean
[9] = plasma 15(S)-HEPE, single oral 500 mg fed high fat diet, N = 6
[10] = plasma 15(S)-HEPE, single oral 500 mg fed standard diet, N = 6, geom. mean
[11] = plasma 15(S)-HEPE, single oral 500 mg fed standard diet, N = 6
[12] = single oral 500 mg with a standard or high-fat diet
[13] = 500 mg QD fasted, Days 14 and 28
[14] = plasma 15(S)-HEPE, 500 mg QD fasted, Day 1, N = 6
[15] = plasma 15(S)-HEPE, 500 mg QD fasted, Day 1, reported only for Subject 38
[16] = plasma 15(S)-HEPE, 500 mg QD fasted, Day 14, N = 3
[17] = plasma 15(S)-HEPE, 500 mg QD fasted, Day 28, N = 2

Q: Which results are given for “15-Hydroxy-Eicosapentaenoic Acid Ethyl Ester [DS102]”?
A: AUC0-last [1, 5]: 1270 (70.9) ng * hr/mL and 1270 ng * hr/mL; Cmax [1, 5]: 343.7 (52.1) ng/mL and 343.7 ng/mL; Tlast [1, 5]: 8.001 (8.00, 8.00) hr and 8.001 hr; Tmax [1, 5]: 6.005 (6.00, 6.01) hr and 6.005 hr; AUC0-last [1, 6]: 1063 (102.6) ng * hr/mL; Cmax [1, 6]: 366.2 (102.5) ng/mL; Tlast [1, 6]: 7.999 (8.00, 8.00) hr; Tmax [1, 6]: 5.996 (5.99, 6.00) hr; AUC0-last [1, 7]: 733.3 (56.5) ng * hr/mL; Cmax [1, 7]: 294.3 (70.1) ng/mL; Tlast [1, 7]: 8.001 (8.00, 8.01) hr; Tmax [1, 7]: 8.001 (6.01, 8.01) hr; Plasma concentrations of 15(S)-HEPE ([1]; single oral 100 mg fasted, entire sampling interval, all subjects): BLQ; median Tmax ([1]; single oral 500 mg fasted): 6.00 h; median Tmax ([1]; single oral 1000 mg fasted): 6.00 h; median Tmax ([1]; single oral 2000 mg fasted): 8.00 h; delay of apparition of 15(S)-HEPE in plasma ([2]; 500 mg with high-fat diet compared to standard diet): 2 h; effect of fed state on 15(S)-HEPE absorption ([2]; fed state (standard or high-fat diet)): considerably increase 15(S)-HEPE absorption; AUC0-last [2, 8]: 9693 ng·h/mL; Cmax [2, 8]: 2402 ng/mL; Tlast [2, 9]: 11.993 h; Tmax [2, 9]: 6.021 h; AUC0-24 [2, 10]: 10940 ng·h/mL; AUC0-last [2, 10]: 8450 ng·h/mL; Cmax [2, 10]: 2420 ng/mL; Tlast [2, 11]: 8.017 h; Tmax [2, 11]: 4.014 h; AUC0-inf ([2]; plasma 15(S)-HEPE, single oral 500 mg fed standard diet, calculable for 4 subjects, geom. mean): 11050 ng·h/mL; t½ ([2]; plasma 15(S)-HEPE, single oral 500 mg fed standard diet, calculable for 4 subjects, mean ± SD): 1.998 ± 1.5155 h; Kel ([2]; plasma 15(S)-HEPE, single oral 500 mg fed standard diet, mean ± SD): 0.471 ± 0.228 h⁻¹; median Tmax ([2]; single oral 500 mg after a high-fat diet): 6.00 h; median Tmax ([2]; single oral 500 mg after a standard diet): 4.00 h; time at which peak mean plasma concentrations were reached [2, 12]: approximately 4 hours; time plasma concentrations remained quantifiable in at least one subject [2, 12]: 12 hours postdose; mean 15(S)-HEPE t½ ([2]; single oral 500 mg, standard diet): 2.00 h and 2.0 h; effect of diet on mean maximum and overall exposure of 15(S)-HEPE (Cmax and AUC0-last) ([2]; single oral 500 mg, standard or high-fat diet relative to fasted): increased mean maximum and overall exposure; mean plasma concentrations of 15(S)-HEPE, fed versus fasted ([2]; single oral 500 mg, standard or high-fat diet vs fasted): higher under fed conditions; time of peak mean 15(S)-HEPE concentrations ([3]; 500 mg QD fasted, Day 1): 4 h; time plasma concentrations remained measurable in at least one subject ([3]; 500 mg QD fasted, Day 14): 24 hours postdose; time plasma concentrations remained measurable in at least one subject ([3]; 500 mg QD fasted, Days 1 and 28): 12 hours postdose; predose values (troughs) [3, 13]: not quantifiable; time of peak mean 15(S)-HEPE concentrations [3, 13]: 6 h; mean plasma 15(S)-HEPE concentrations by study day ([3]; 1000 mg QD fasted): higher on Day 14 than on Days 1 and 28; time plasma concentrations remained quantifiable in at least one subject ([3]; 1000 mg QD fasted, Day 14): 12 hours postdose; time plasma concentrations remained quantifiable in at least one subject ([3]; 1000 mg QD fasted, Days 1 and 28): 8 hours postdose; predose values (troughs) ([3]; 1000 mg QD fasted, Days 14 and 28): no quantifiable predose values; AUC0-last [3, 14]: 1681 ng·h/mL; Cmax [3, 14]: 459.1 ng/mL; Tlast [3, 14]: 8.079 h; Tmax [3, 14]: 5.005 h; AUC0-24 [3, 15]: 6249 ng·h/mL; AUC0-inf [3, 15]: 6277 ng·h/mL; Kel [3, 15]: 0.245 h⁻¹; t½ [3, 15]: 2.824 h; AUC0-last [3, 16]: 2370 ng·h/mL; Cmax [3, 16]: 644.1 ng/mL; RAUC [3, 16]: 6.807 ± 10.322; RCmax [3, 16]: 4.177 ± 5.4055; Tlast [3, 16]: 8.034 h; Tmax [3, 16]: 5.995 h; AUC0-last [3, 17]: 2787 ng·h/mL; Cmax [3, 17]: 737.4 ng/mL; RAUC [3, 17]: 8.205 ± 10.210; RCmax [3, 17]: 5.923 ± 6.8329; Tlast [3, 17]: 10.002 h; Tmax [3, 17]: 6.004 h; adverse events considered related to the study treatment ([4]; following DS102 treatment): dysguesia and eructation; deaths, serious adverse events, discontinuations due to AEs ([4]; single and multiple ascending doses): no deaths, serious adverse events (SAEs), or subject discontinuations due to AEs; safety and tolerability ([4]; single ascending doses of 100 mg, 500 mg, 1000 mg and 2000 mg and multiple ascending doses of 500 mg, 500 and 1000 mg): safe and well tolerated
